Experiments:
AGP = assay: UV titration (Benesi–Hildebrand) with AGP; format: binding, human; conditions: human, pH 7.4, UV titration, n = 3; 1 μM AGP, pH 7.4 phosphate buffer, 24 °C, 278 nm; read-out: logKAGP ± Stdev (logarithm of stability constant) (converted)
Description: The UV-Vis absorption assay is a straightforward and relatively simple method to examine the interactions between small molecules and macromolecules. Changes in the structure of the protein caused by the interacting ligand can lead to alterations in the absorption spectrum. […] Fixed wavelength measurements were conducted at the absorption maxima of AGP and HSA. […] The change in the absorbance and wavelength maximum in the UV spectra during the titration refers to the complex formation between proteins and PPIs. The Benesi–Hildebrand method was used to determine the stability constants based on Equation (7).
The absorption spectra were recorded on a Jasco V-750 spectrophotometer (Jasco, Tokyo, Japan) at 24 °C using 1.0 cm path-length quartz cuvettes. Then, 1 μM HSA and AGP were dissolved in a sodium phosphate buffer solution (pH 7.4; 0.1 M) and their concentration was kept constant. The PPIs were dissolved in DMSO, and further diluted with the AGP or HSA solution. Next, 1000 μL of 1 μM HSA and AGP solutions was titrated with the PPI stock solution in 1 μL steps. The concentration of the PPIs was set to 4.00, 7.98, 11.96, 15.94, 19.90, 23.86, 27.81, and 31.75 μM. The binding constants were determined using the Benesi–Hildebrand equation:(7) A0/A−A0=εPPI/εAPPI−εPPI+εPPI/εAPPI−εPPI×1/K×[C] where A0 is the absorbance of the HSA or AGP at 278 nm, A is the absorbance of the formed complex also at 278 nm, εPPI is the extinction coefficient of the actual PPI, εAPPI is the extinction coefficient of the albumin or AGP and PPI complex, K is the binding coefficient, and [C] is the concentration of the investigated PPI. The plot of A0/A − A0 versus C^−1 has a slope of K^−1. All experiments were performed in triplicate.

[1] = test system: α1-acid glycoprotein (AGP); assay: HPLC on AGP-based chiral stationary phase (ChromTech Chiral-AGP column); format: binding, human; conditions: 10 mM pH 7 phosphate buffer, 25 °C
Description: HPLC using a protein-based chiral stationary phase is a fully automated method for obtaining rapid information about the binding of compounds to the respective proteins. Enantioseparation occurs in the case of unequal binding constants of the individual enantiomers to the immobilized proteins, thus allowing enantioselective binding to be characterized even when a racemic mixture was injected. As a preliminary step, the enantiospecific binding was investigated on columns containing AGP and HSA in various alcohol:buffer mixtures. A pH 7 phosphate buffer was employed as the aqueous part of the mobile phase, while for the organic part, three different alcohols were evaluated. […]
Chromatographic measurements were carried out on two separate HPLC systems. The AGP binding study was performed on a Waters 2695e chromatographic system paired with a Waters 2996 PDA detector, controlled by Empower 3 FR5 (Waters Corp., Milford, MA, USA), while the HSA binding study was performed on an Agilent 1100 HPLC system, consisting of an inline degasser (G1322A), a quaternary pump (G1311A), an automatic injector (G1329A) paired with sample thermostat (G1330A), a column thermostat (G1316A), and a diode array detector (G1315A) with Agilent Chemstation B04.03-SP2 software (Agilent, Bronnwald, Germany). For the binding studies, two protein-based chiral stationary phases were utilized. The chromatographic binding study for AGP was conducted on a ChromTech Chiral-AGP column (150 mm × 4.0 mm; ChromTech Ltd., Congleton, UK), while the binding study for HSA was performed on a Daicel Chiralpak HSA column (50 mm × 4.0 mm; Daicel Corp., Osaka, Japan). The detection wavelength was 210 nm for all measurements. The stock solutions of PPIs were prepared at a concentration of 1 mg/mL in MeOH. Subsequent dilutions were prepared using water. The injected samples were mixed and diluted from the stock solutions. The final concentration for the eutomer was 0.2 mg/mL, and for the distomer, it was 0.1 mg/mL. A volume of 2 μL was injected. To mitigate the instability of PPIs in aqueous solutions, the samples were kept at a temperature of 4 °C.

Work on `Cc1c(OCC(F)(F)F)ccnc1C[S@+]([O-])c1nc2ccccc2[nH]1` [S-lansoprazole] yielded a Kd (AGP) of 14.8 µM.
In the case of `Cc1c(OCC(F)(F)F)ccnc1C[S+]([O-])c1nc2ccccc2[nH]1` (stereo not shown) [Lansoprazole, lansoprazole], the “k1 retention factor (first-eluting enantiomer)” value (from here on “k1 retention factor”) ([1]; 2.5% IPA) is reported as 15.75, the “k2 retention factor (second-eluting enantiomer)” value (from here on “k2 retention factor”) ([1]; 2.5% IPA) is reported as 19.61 and the “k1 retention factor” value ([1]; 5% EtOH) is reported as 14.52. For the same compound, the “k2 retention factor” value ([1]; 5% EtOH) was 18.43, the “k1 retention factor” value ([1]; 5% IPA) was 6.88 and the “k2 retention factor” value ([1]; 5% IPA) was 9.12. The “k1 retention factor” value ([1]; 5% MeOH) was 22.63, the “k2 retention factor” value ([1]; 5% MeOH) was 28.55 and the “k1 retention factor” value ([1]; 7.5% EtOH) was 8.24. For the same compound, the “k2 retention factor” value ([1]; 7.5% EtOH) was 10.64, the “k1 retention factor” value ([1]; 7.5% IPA) was 4.00 and the “k2 retention factor” value ([1]; 7.5% IPA) was 5.28. The “k1 retention factor” value ([1]; 7.5% MeOH) was 14.63, the “k2 retention factor” value ([1]; 7.5% MeOH) was 18.79 and the “k1 retention factor” value ([1]; 10% EtOH) was 5.13. The “k2 retention factor” value ([1]; 10% EtOH) was 6.62, the “k1 retention factor” value ([1]; 10% IPA) was 2.67 and the “k2 retention factor” value ([1]; 10% IPA) was 3.47. The “k1 retention factor” value ([1]; 10% MeOH) was 9.96, the “k2 retention factor” value ([1]; 10% MeOH) was 12.56 and the “k1 retention factor” value ([1]; 12.5% IPA) was 1.95. For the same compound, the “k2 retention factor” value ([1]; 12.5% IPA) was 2.47, the “k1 retention factor” value ([1]; 15% EtOH) was 2.54 and the “k2 retention factor” value ([1]; 15% EtOH) was 3.21. For the same compound, the “k1 retention factor” value ([1]; 15% IPA) was 1.48, the “k2 retention factor” value ([1]; 15% IPA) was 1.83 and the “k1 retention factor” value ([1]; 15% MeOH) was 7.02. For the same compound, the “k2 retention factor” value ([1]; 15% MeOH) was 8.75.
In the case of `COc1ccc2[nH]c([S+]([O-])Cc3ncc(C)c(OC)c3C)nc2c1` (stereo not shown) [Omeprazole, omeprazole], the “k1 retention factor” value ([1]; 2.5% IPA) is reported as 13.24, the “k2 retention factor” value ([1]; 2.5% IPA) is reported as 16.18 and the “k1 retention factor” value ([1]; 5% EtOH) is reported as 12.69. The “k2 retention factor” value ([1]; 5% EtOH) was 15.14, the “k1 retention factor” value ([1]; 5% IPA) was 5.46 and the “k2 retention factor” value ([1]; 5% IPA) was 5.46. The “k1 retention factor” value ([1]; 5% MeOH) was 25.74, the “k2 retention factor” value ([1]; 5% MeOH) was 37.33 and the “k1 retention factor” value ([1]; 7.5% EtOH) was 6.57. For the same compound, the “k2 retention factor” value ([1]; 7.5% EtOH) was 7.20, the “k1 retention factor” value ([1]; 7.5% IPA) was 2.88 and the “k2 retention factor” value ([1]; 7.5% IPA) was 2.88. For the same compound, the “k1 retention factor” value ([1]; 7.5% MeOH) was 15.56, the “k2 retention factor” value ([1]; 7.5% MeOH) was 21.41 and the “k1 retention factor” value ([1]; 10% EtOH) was 4.02. The “k2 retention factor” value ([1]; 10% EtOH) was 4.02, the “k1 retention factor” value ([1]; 10% IPA) was 1.87 and the “k2 retention factor” value ([1]; 10% IPA) was 1.87. The “k1 retention factor” value ([1]; 10% MeOH) was 9.95, the “k2 retention factor” value ([1]; 10% MeOH) was 13.05 and the “k1 retention factor” value ([1]; 12.5% IPA) was 1.33. For the same compound, the “k2 retention factor” value ([1]; 12.5% IPA) was 1.33, the “k1 retention factor” value ([1]; 15% EtOH) was 1.81 and the “k2 retention factor” value ([1]; 15% EtOH) was 1.81. The “k1 retention factor” value ([1]; 15% IPA) was 1.01, the “k2 retention factor” value ([1]; 15% IPA) was 1.01 and the “k1 retention factor” value ([1]; 15% MeOH) was 6.70. For the same compound, the “k2 retention factor” value ([1]; 15% MeOH) was 8.43.
Compound `Cc1c(OCC(F)(F)F)ccnc1C[S@@+]([O-])c1nc2ccccc2[nH]1` [R-lansoprazole, dexlansoprazole] has a Kd (AGP) of 27.5 µM.
In the case of `COCCCOc1ccnc(C[S+]([O-])c2nc3ccccc3[nH]2)c1C` (stereo not shown) [Rabeprazole, rabeprazole], the “k1 retention factor” value ([1]; 2.5% IPA) is reported as 14.89, the “k2 retention factor” value ([1]; 2.5% IPA) is reported as 21.66 and the “k1 retention factor” value ([1]; 5% EtOH) is reported as 13.04. The “k2 retention factor” value ([1]; 5% EtOH) was 20.84, the “k1 retention factor” value ([1]; 5% IPA) was 6.68 and the “k2 retention factor” value ([1]; 5% IPA) was 7.89. For the same compound, the “k1 retention factor” value ([1]; 5% MeOH) was 20.89, the “k2 retention factor” value ([1]; 5% MeOH) was 42.82 and the “k1 retention factor” value ([1]; 7.5% EtOH) was 7.21. The “k2 retention factor” value ([1]; 7.5% EtOH) was 10.50, the “k2 retention factor” value ([1]; 7.5% IPA) was 3.90 and the “k1 retention factor” value ([1]; 7.5% MeOH) was 12.90. The “k2 retention factor” value ([1]; 7.5% MeOH) was 26.14, the “k1 retention factor” value ([1]; 10% EtOH) was 4.39 and the “k2 retention factor” value ([1]; 10% EtOH) was 5.89. The “k1 retention factor” value ([1]; 10% IPA) was 2.47, the “k2 retention factor” value ([1]; 10% IPA) was 2.47 and the “k1 retention factor” value ([1]; 10% MeOH) was 8.63. For the same compound, the “k2 retention factor” value ([1]; 10% MeOH) was 16.71, the “k1 retention factor” value ([1]; 12.5% IPA) was 1.72 and the “k2 retention factor” value ([1]; 12.5% IPA) was 1.72. The “k1 retention factor” value ([1]; 15% EtOH) was 2.11, the “k2 retention factor” value ([1]; 15% EtOH) was 2.48 and the “k1 retention factor” value ([1]; 15% IPA) was 1.27. The “k2 retention factor” value ([1]; 15% IPA) was 1.27, the “k1 retention factor” value ([1]; 15% MeOH) was 5.97 and the “k2 retention factor” value ([1]; 15% MeOH) was 11.00.

From publication PMC11477000, “Enantioselective Binding of Proton Pump Inhibitors to Alpha1-Acid Glycoprotein and Human Serum Albumin—A Chromatographic, Spectroscopic, and In Silico Study” (International Journal of Molecular Sciences, 2024)
